Reference: patent EP3560516A1, “COMBINATION THERAPY INCLUDING BETA-SITOSTEROL IN COMBINATION WITH AT LEAST ONE OF A BRAF INHIBITOR, A MEK INHIBITOR OR AN ERK INHIBITOR AND METHODS AND USE THEREOF” (Bergen Teknologioverføring AS, priority 2018, dated 2019)

How the values were obtained:
Melmet 5 cells = experiment: subcutaneous Melmet 5 melanoma model; assay type: in vivo, mice; details: daily i.p. from 2 weeks: 20 mg/kg β-sitosterol, 25 mg/kg PLX4720, or both
From the text: (§1) • Figure 1: In vivo drug screening. (Figure left) Number of brain metastases at T1-weighted MRI with contrast (Student's t-test). (Figure right) Kaplan-Meier survival plot (Mantel-Cox log-rank test). There was no significant difference between vehicle- and memantine-treated mice. * P < 0.05; ** P < 0.01. All values are given as the mean ± s.e.m. • Figure 2: In vivo validation of β-sitosterol treatment-1. (Figure left) Number of brain metastases assessed by T1-weighted MRI with contrast (Student's t-test). The mean number of brain metastases in the vehicle group decreased slightly from seven to eight weeks as four mice with the greatest number of brain metastases were sacrificed between these observation points. (Figure right) Kaplan-Meier survival plot (Mantel-Cox log-rank test). The experiment was terminated at 100 days, and three mice in the β-sitosterol group were still alive and healthy. * P < 0.05; ** P < 0.01; **** P < 0.0001. All values are given as the mean ± s.e.m. • Figure 3: In vivo validation of β-sitosterol on H1_DL2 brain metastasis-2. (Figure left) Body weight from week zero to eight. […] After 24 hours, the drugs were added to the wells, incubated for 72 hours, and then viability was assessed using an MTS assay. […] After 24 hours, the drugs were added to the wells, incubated for 72 hours, and then viability was assessed using an MTS assay. […]

brain metastases = experiment: in vivo drug screening in human-to-mouse brain metastasis model; details: compared with vehicle-treated mice; for survival: Kaplan-Meier
From the text: (§2) • Figure 1: In vivo drug screening. (Figure left) Number of brain metastases at T1-weighted MRI with contrast (Student's t-test). (Figure right) Kaplan-Meier survival plot (Mantel-Cox log-rank test). There was no significant difference between vehicle- and memantine-treated mice. * P < 0.05; ** P < 0.01. All values are given as the mean ± s.e.m. • Figure 2: In vivo validation of β-sitosterol treatment-1. (Figure left) Number of brain metastases assessed by T1-weighted MRI with contrast (Student's t-test). The mean number of brain metastases in the vehicle group decreased slightly from seven to eight weeks as four mice with the greatest number of brain metastases were sacrificed between these observation points. (Figure right) Kaplan-Meier survival plot (Mantel-Cox log-rank test). The experiment was terminated at 100 days, and three mice in the β-sitosterol group were still alive and healthy. * P < 0.05; ** P < 0.01; **** P < 0.0001. All values are given as the mean ± s.e.m. • Figure 3: In vivo validation of β-sitosterol on H1_DL2 brain metastasis-2. (Figure left) Body weight from week zero to eight. […] (Figure right) Volume of brain metastases at MRI (T1-weighted with contrast). Total volume of brain metastases per animal was compared at group level. Student's t-test: n.s. P ≥ 0.05, * P < 0.05, ** P < 0.01, *** P < 0.001, **** P < 0.0001. All values are given as the mean ± s.e.m. • Figure 4: In vivo validation of β-sitosterol on PC14-PE6-Br2 brain metastases. Mice were injected intracardially with 5 x 10^5 PC14-PE6-Br2 cells. Test groups received daily i.p. injections of 0.1 mL vehicle (olive oil; n =4) or β-sitosterol 5 mg/kg (n = 6). (Figure left) Total volume of brain metastases at MRI at three weeks (T1-weighted with contrast). Total volume of brain metastases per animal was compared at group level. (Figure right) Kaplan-Meier survival plot (Mantel-Cox log-rank test: *** P < 0.001). All values are given as the mean ± s.e.m. • Figure 5: In vitro and in vivo effects on additional melanoma metastatic cell lines. (Figure left) Half maximal inhibitory concentration (IC50) values for β-sitosterol, PLX4720 and the combination thereof in Melmet 1, Melmet 5 and A375 cell lines (n = 3). (Figure right) Subcutaneous tumor volume ([width2 x length]/2) in mice injected with […] Melmet 5 cells. Mice were from 2 weeks onwards given daily i.p. injections of 0.1 mL vehicle (olive oil), 20 mg/kg β-sitosterol in olive oil, 25 mg/kg PLX4720 in 0.05% DMSO, or a combination of the two latter (n = 8 in each group). Representative images of tumors at 44 days are shown in the right panel. Student's t-test: * P < 0.05, ** P < 0.01. Values are given as the mean ± s.e.m. • Figure 6: In vitro effects of other BRAF and MEK inhibitors on human melanoma brain metastatic cell lines. 5000 cells (human BRAF mutated melanoma brain metastatic cell lines H1, H9 or H10) were plated in each well of a 96 well dish. After 24 hours, the drugs were added to the wells, incubated for 72 hours, and then viability was assessed using an MTS assay. […] 5000 cells were plated in each well of a 96 well dish. After 24 hours, the drugs were added to the wells, incubated for 72 hours, and then viability was assessed using an MTS assay.
We next investigated the efficacy of thiostrepton, memantine, and β-sitosterol using a highly standardized human-to-mouse brain metastasis model (Sundstrøm T et al, Cancer Res 2013;73:2445-2456). Drug treatment was commenced one week after tumor cell injections.

four melanoma cell lines = experiment: monolayer viability and tumorsphere assays; assay type: cell-based; details: among top 10 candidate compounds from cMap
From the text: Based on RNA sequencing of tumors in brains, adrenals, bone and ovaries from mice, we defined a 108-gene brain metastasis signature using a comparative work-flow of independent analyses of gene expression profiles from brain versus other organ metastases in a human BRAF-mutant melanoma xenograft model. […] For further studies, we concentrated on the top 10 candidate anti-brain metastatic compounds. To test the efficacy of the candidate compounds, we performed monolayer viability and tumorsphere assays in four melanoma cell lines (Daphu I et al, Int J Mol Sci 2014;15:8773.8794, Netland IA et al, J Neurooncol 2016;129:57-66). IC50 values were generally lower in tumorspheres than in monolayers, and there was substantial variation in cell line sensitivity.

H1 cells = experiment: MTS viability assay; assay type: cell-based, human
From the text: (§3) • Figure 1: In vivo drug screening. (Figure left) Number of brain metastases at T1-weighted MRI with contrast (Student's t-test). (Figure right) Kaplan-Meier survival plot (Mantel-Cox log-rank test). There was no significant difference between vehicle- and memantine-treated mice. * P < 0.05; ** P < 0.01. All values are given as the mean ± s.e.m. • Figure 2: In vivo validation of β-sitosterol treatment-1. (Figure left) Number of brain metastases assessed by T1-weighted MRI with contrast (Student's t-test). The mean number of brain metastases in the vehicle group decreased slightly from seven to eight weeks as four mice with the greatest number of brain metastases were sacrificed between these observation points. (Figure right) Kaplan-Meier survival plot (Mantel-Cox log-rank test). The experiment was terminated at 100 days, and three mice in the β-sitosterol group were still alive and healthy. * P < 0.05; ** P < 0.01; **** P < 0.0001. All values are given as the mean ± s.e.m. • Figure 3: In vivo validation of β-sitosterol on H1_DL2 brain metastasis-2. (Figure left) Body weight from week zero to eight. […] (Figure right) Volume of brain metastases at MRI (T1-weighted with contrast). Total volume of brain metastases per animal was compared at group level. Student's t-test: n.s. P ≥ 0.05, * P < 0.05, ** P < 0.01, *** P < 0.001, **** P < 0.0001. All values are given as the mean ± s.e.m. • Figure 4: In vivo validation of β-sitosterol on PC14-PE6-Br2 brain metastases. Mice were injected intracardially with 5 x 10^5 PC14-PE6-Br2 cells. Test groups received daily i.p. injections of 0.1 mL vehicle (olive oil; n =4) or β-sitosterol 5 mg/kg (n = 6). (Figure left) Total volume of brain metastases at MRI at three weeks (T1-weighted with contrast). Total volume of brain metastases per animal was compared at group level. (Figure right) Kaplan-Meier survival plot (Mantel-Cox log-rank test: *** P < 0.001). All values are given as the mean ± s.e.m. • Figure 5: In vitro and in vivo effects on additional melanoma metastatic cell lines. (Figure left) Half maximal inhibitory concentration (IC50) values for β-sitosterol, PLX4720 and the combination thereof in Melmet 1, Melmet 5 and A375 cell lines (n = 3). (Figure right) Subcutaneous tumor volume ([width2 x length]/2) in mice injected with […] Melmet 5 cells. Mice were from 2 weeks onwards given daily i.p. injections of 0.1 mL vehicle (olive oil), 20 mg/kg β-sitosterol in olive oil, 25 mg/kg PLX4720 in 0.05% DMSO, or a combination of the two latter (n = 8 in each group). […] After 24 hours, the drugs were added to the wells, incubated for 72 hours, and then viability was assessed using an MTS assay. […] After 24 hours, the drugs were added to the wells, incubated for 72 hours, and then viability was assessed using an MTS assay. […]

MDA-MB-231 = experiment: MTS viability assay; assay type: cell-based, human
From the text: as §3

H10 cells = experiment: MTS viability assay; assay type: cell-based, human
From the text: as §3

[1] = system: PC14-PE6-Br2 brain metastases; experiment: in vivo validation on lung adenocarcinoma brain metastases; set-up: species or system mice; details: 5 mg/kg daily i.p.
From the text: • Figure 1: In vivo drug screening. (Figure left) Number of brain metastases at T1-weighted MRI with contrast (Student's t-test). (Figure right) Kaplan-Meier survival plot (Mantel-Cox log-rank test). There was no significant difference between vehicle- and memantine-treated mice. * P < 0.05; ** P < 0.01. All values are given as the mean ± s.e.m. • Figure 2: In vivo validation of β-sitosterol treatment-1. (Figure left) Number of brain metastases assessed by T1-weighted MRI with contrast (Student's t-test). The mean number of brain metastases in the vehicle group decreased slightly from seven to eight weeks as four mice with the greatest number of brain metastases were sacrificed between these observation points. (Figure right) Kaplan-Meier survival plot (Mantel-Cox log-rank test). The experiment was terminated at 100 days, and three mice in the β-sitosterol group were still alive and healthy. * P < 0.05; ** P < 0.01; **** P < 0.0001. All values are given as the mean ± s.e.m. • Figure 3: In vivo validation of β-sitosterol on H1_DL2 brain metastasis-2. (Figure left) Body weight from week zero to eight. […] After 24 hours, the drugs were added to the wells, incubated for 72 hours, and then viability was assessed using an MTS assay. […] After 24 hours, the drugs were added to the wells, incubated for 72 hours, and then viability was assessed using an MTS assay.

H1_DL2 brain metastasis = experiment: in vivo validation of β-sitosterol treatment, treatment commenced before cell injection; set-up: species or system mice
From the text: as §2
To validate our β-sitosterol treatment findings, we carried out a new and more extensive in vivo study in which treatment commenced before cell injection.

H9 cells = experiment: MTS viability assay; assay type: cell-based; details: Homo sapiens, H9, 72 h, read-out: cell viability
From the text: as §1

[2] = human, mda-mb-231 cells, 72 h, 35 µM
[3] = MRI, treatment commenced one week after tumor cell injections

CCCS(=O)(=O)Nc1ccc(F)c(C(=O)c2c[nH]c3ncc(Cl)cc23)c1F [PLX4720, reference compound]
subcutaneous tumor growth (Melmet 5 cells): effective as monotherapies

CC12CC3CC(C)(C1)CC(N)(C3)C2 [memantine, reference compound]
survival (brain metastases): did not affect survival | reducing viability and tumorsphere growth (four melanoma cell lines): most potent

C=C(NC(=O)C(=C)NC(=O)c1csc(C2=N[C@@H]3c4csc(n4)[C@H]4NC(=O)c5csc(n5)[C@H]([C@](C)(O)[C@@H](C)O)NC(=O)[C@H]5CSC(=N5)/C(=C/C)NC(=O)[C@H]([C@@H](C)O)NC(=O)c5csc(n5)[C@]3(CC2)NC(=O)[C@H](C)NC(=O)C(=C)NC(=O)[C@H](C)NC(=O)[C@H]([C@@H](C)CC)N[C@@H]2C=Cc3c([C@H](C)O)cc(nc3[C@H]2O)C(=O)O[C@@H]4C)n1)C(N)=O [thiostrepton, reference compound]
survival (brain metastases): significantly shorter lifespan | reducing viability and tumorsphere growth (four melanoma cell lines): most potent

CC(=O)Nc1cccc(-n2c(=O)n(C3CC3)c(=O)c3c(Nc4ccc(I)cc4F)n(C)c(=O)c(C)c32)c1 [trametinib, reference compound]
cell viability (H1 cells; h1 cells, 72 h, 50 µM): ~60% | cell viability (MDA-MB-231; [2]): around 44%

CCCS(=O)(=O)Nc1ccc(F)c(C(=O)c2c[nH]c3ncc(-c4ccc(Cl)cc4)cc23)c1F [vemurafenib, reference compound]
cell viability (H10 cells; h10 cells, 72 h, 50 µM): around 25% | cell viability (MDA-MB-231; [2]): ~73%

CC[C@H](CC[C@@H](C)[C@H]1CC[C@H]2[C@@H]3CC=C4C[C@@H](O)CC[C@]4(C)[C@H]3CC[C@]12C)C(C)C [β-sitosterol]
survival ([1]; Kaplan-Meier): prolonged survival | brain metastatic burden ([1]; MRI at three weeks, compared with vehicle): significant reduction | cell viability (H10 cells; 50uM beta-sitosterol, 5uM vemurafenib, 72 hours, compared to the untreated cells): around 80% | cell viability (H1 cells; 50uM beta-sitosterol, 5nM trametinib, 72 hours, compared with untreated cells): around 85% | cell viability (MDA-MB-231; 35uM beta-sitosterol, 0.5uM trametinib, 72 hours (Figure 7 left)): around 48% | cell viability (MDA-MB-231; 35uM beta-sitosterol, 5uM vemurafenib, 72 hours (Figure 7 right)): around 44% | subcutaneous tumor growth (Melmet 5 cells): effective as monotherapies | survival (H1_DL2 brain metastasis; Kaplan-Meier, compared with vehicle treatment, terminated at 100 days): significant survival benefit | volumes of brain metastases (H1_DL2 brain metastasis; MRI T1-weighted with contrast, compared with vehicle group): significantly lower volumes | number of brain metastases (H1_DL2 brain metastasis; T1-weighted MRI with contrast, compared with vehicle group): significantly fewer brain metastases | mice healthy and tumor-free (H1_DL2 brain metastasis; at 100 days, evaluated by brain MRI and histology): three out of nine | average body weight (H1_DL2 brain metastasis; at 100 days, three remaining mice, mean ± s.e.m.): 26.7 ± 0.6 grams | body weight (H1_DL2 brain metastasis; week zero to eight, vehicle-treated mice lost weight from four weeks onwards): maintained a stable body weight | viability at 50 µM (H9 cells): 85% | survival (brain metastases): survived significantly longer | number of brain metastases (brain metastases; [3]): significant reduction | volume of brain metastases (brain metastases; [3]): significant reduction | reducing viability and tumorsphere growth (four melanoma cell lines): most potent
